Assay results as given in ChEMBL document CHEMBL1909639, “Synthesis, stereochemistry and in vitro antimicrobial evaluation of novel 2-[(2,4-diaryl-3-azabicyclo[3.3.1]nonan-9-ylidene)hydrazono]-4-phenyl-2,3-dihydrothiazoles” (2011).
Converted amounts (≈) assume the structure as drawn. The source made the active and inactive calls. The rule behind the calls is not given here.

Experiments:
Staphylococcus aureus = experiment: Antibacterial activity against Staphylococcus aureus ATCC 25825 after 24 hrs by twofold serial dilution method; format: functional; conditions: ATCC 25825, 24 h
Bacillus subtilis [1] = experiment: Antibacterial activity against Bacillus subtilis ATCC 451 after 24 hrs by twofold serial dilution method; format: functional; conditions: ATCC 451, 24 h
Rhizopus [2] = experiment: Antifungal activity against Rhizopus sp. ATCC 2915 after 72 to 96 hrs by twofold serial dilution method; format: functional
Aspergillus flavus [3] = experiment: Antifungal activity against Aspergillus flavus ATCC 485 after 72 to 96 hrs by twofold serial dilution method; format: functional
Klebsiella pneumoniae [4] = experiment: Antibacterial activity against Klebsiella pneumoniae ATCC 15490 after 24 hrs by twofold serial dilution method; format: functional; conditions: ATCC 15490, 24 h
Cryptococcus neoformans [5] = experiment: Antifungal activity against Cryptococcus neoformans ATCC 3312 after 72 to 96 hrs by twofold serial dilution method; format: functional
Candida albicans = experiment: Antifungal activity against Candida albicans ATCC 3122 by twofold serial dilution method; format: functional
Aspergillus niger = experiment: Antifungal activity against Aspergillus niger ATCC 598 after 72 to 96 hrs by twofold serial dilution method; format: functional
Escherichia coli [6] = experiment: Antibacterial activity against Escherichia coli ATCC 25835 after 24 hrs by twofold serial dilution method; format: functional; conditions: ATCC 25835, 24 h
Salmonella typhi [7] = experiment: Antibacterial activity against Salmonella typhi ATCC 24915 after 24 hrs by twofold serial dilution method; format: functional, Salmonella enterica subsp. enterica serovar Typhi; conditions: Salmonella enterica, ATCC 24915, 24 h
Klebsiella pneumoniae [8] = experiment: Antibacterial activity against Klebsiella pneumoniae ATCC 15490 at 200 ug/mL after 24 hrs by twofold serial dilution method; format: functional, organism-based
Bacillus subtilis [9] = experiment: Antibacterial activity against Bacillus subtilis ATCC 451 at 200 ug/mL after 24 hrs by twofold serial dilution method; format: functional, organism-based
Rhizopus [10] = experiment: Antifungal activity against Rhizopus sp. ATCC 2915 at 200 ug/mL after 72 to 96 hrs by twofold serial dilution method; format: functional, organism-based
Salmonella typhi [11] = experiment: Antibacterial activity against Salmonella typhi ATCC 24915 at 200 ug/mL after 24 hrs by twofold serial dilution method; format: functional, organism-based; conditions: Salmonella enterica subsp. enterica serovar Typhi
Escherichia coli [12] = experiment: Antibacterial activity against Escherichia coli ATCC 25835 at 200 ug/mL after 24 hrs by twofold serial dilution method; format: functional, organism-based
Aspergillus flavus [13] = experiment: Antifungal activity against Aspergillus flavus ATCC 485 at 200 ug/mL after 72 to 96 hrs by twofold serial dilution method; format: functional, organism-based
Cryptococcus neoformans [14] = experiment: Antifungal activity against Cryptococcus neoformans ATCC 3312 at 200 ug/mL after 72 to 96 hrs by twofold serial dilution method; format: functional, organism-based
Escherichia coli [15] = experiment: Ratio of compound MIC over streptomycin MIC for Escherichia coli ATCC 25835; format: functional

Row | SMILES | MIC (Staphylococcus aureus) | MIC (Bacillus subtilis [1]) | MIC (Rhizopus [2]) | MIC (Aspergillus flavus [3]) | MIC (Klebsiella pneumoniae [4]) | MIC (Cryptococcus neoformans [5]) | MIC (Candida albicans) | MIC (Aspergillus niger) | MIC (Escherichia coli [6]) | MIC (Salmonella typhi [7]) | Activity (Klebsiella pneumoniae [8]) | Activity (Bacillus subtilis [9]) | Activity (Rhizopus [10]) | Activity (Salmonella typhi [11]) | Activity (Escherichia coli [12]) | Activity (Aspergillus flavus [13]) | Activity (Cryptococcus neoformans [14]) | Ratio (Escherichia coli [15])
1 | Clc1ccc([C@H]2N[C@@H](c3ccc(Cl)cc3)C3CCCC2/C3=N/N=c2/[nH]c(-c3ccccc3)cs2)cc1 | 25 µg/mL (≈ 46.9 µM) | 25 µg/mL (≈ 46.9 µM) | 50 µg/mL (≈ 93.7 µM) | 25 µg/mL (≈ 46.9 µM) | 100 µg/mL (≈ 187 µM) | 200 µg/mL (≈ 375 µM) | 200 µg/mL (≈ 375 µM) | 25 µg/mL (≈ 46.9 µM) | 100 µg/mL (≈ 187 µM) | 50 µg/mL (≈ 93.7 µM) | – | – | – | – | – | – | – | –
2 | Clc1ccc([C@H]2N[C@@H](c3ccc(Cl)cc3)C3CCCC2/C3=N/N=c2\scc(-c3ccccc3)n2-c2ccccc2)cc1 | 25 µg/mL (≈ 41 µM) | 12.5 µg/mL (≈ 20.5 µM) | 6.25 µg/mL (≈ 10.3 µM) | 100 µg/mL (≈ 164 µM) | – | 50 µg/mL (≈ 82 µM) | 100 µg/mL (≈ 164 µM) | 25 µg/mL (≈ 41 µM) | 100 µg/mL (≈ 164 µM) | 25 µg/mL (≈ 41 µM) | inactive | – | – | – | – | – | – | –
3 | CN[C@@H]1[C@H](O[C@H]2[C@H](O[C@H]3[C@H](O)[C@@H](O)[C@H](N=C(N)N)[C@@H](O)[C@@H]3N=C(N)N)O[C@@H](C)[C@]2(O)C=O)O[C@@H](CO)[C@H](O)[C@H]1O [STREPTOMYCIN] | 50 µg/mL (≈ 86 µM) | 12.5 µg/mL (≈ 21.5 µM) | – | – | 25 µg/mL (≈ 43 µM) | – | – | – | 12.5 µg/mL (≈ 21.5 µM) | 50 µg/mL (≈ 86 µM) | – | – | – | – | – | – | – | –
4 | Fc1cccc([C@H]2N[C@@H](c3cccc(F)c3)C3CCCC2/C3=N/N=c2/[nH]c(-c3ccccc3)cs2)c1 | 12.5 µg/mL (≈ 25 µM) | – | – | 100 µg/mL (≈ 200 µM) | 25 µg/mL (≈ 49.9 µM) | 50 µg/mL (≈ 99.9 µM) | 100 µg/mL (≈ 200 µM) | 200 µg/mL (≈ 400 µM) | 25 µg/mL (≈ 49.9 µM) | 200 µg/mL (≈ 400 µM) | – | inactive | inactive | – | – | – | – | –
5 | C[C@@H]1[C@H](O)[C@@H](C)/C=C/C=C/C=C/C=C/C=C/C=C/C=C/[C@H](O[C@@H]2O[C@H](C)[C@@H](O)[C@H](N)[C@@H]2O)C[C@@H]2O[C@](O)(C[C@@H](O)C[C@@H](O)[C@H](O)CC[C@@H](O)C[C@@H](O)CC(=O)O[C@H]1C)C[C@H](O)[C@H]2C(=O)O [AMPHOTERICIN B] | – | – | 25 µg/mL (≈ 27.1 µM) | 50 µg/mL (≈ 54.1 µM) | – | 25 µg/mL (≈ 27.1 µM) | 25 µg/mL (≈ 27.1 µM) | 50 µg/mL (≈ 54.1 µM) | – | – | – | – | – | – | – | – | – | –
6 | COc1ccc([C@H]2N[C@@H](c3ccc(OC)cc3)C3CCCC2/C3=N/N=c2/[nH]c(-c3ccccc3)cs2)cc1 | 25 µg/mL (≈ 47.6 µM) | – | 100 µg/mL (≈ 191 µM) | 12.5 µg/mL (≈ 23.8 µM) | 200 µg/mL (≈ 381 µM) | 12.5 µg/mL (≈ 23.8 µM) | 100 µg/mL (≈ 191 µM) | 25 µg/mL (≈ 47.6 µM) | 100 µg/mL (≈ 191 µM) | – | – | inactive | – | inactive | – | – | – | –
7 | c1ccc(-c2cs/c(=N\N=C3\C4CCCC3[C@H](c3ccccc3)N[C@@H]4c3ccccc3)n2-c2ccccc2)cc1 | 25 µg/mL (≈ 46.2 µM) | 100 µg/mL (≈ 185 µM) | 200 µg/mL (≈ 370 µM) | 100 µg/mL (≈ 185 µM) | – | 50 µg/mL (≈ 92.5 µM) | 12.5 µg/mL (≈ 23.1 µM) | 200 µg/mL (≈ 370 µM) | 200 µg/mL (≈ 370 µM) | 100 µg/mL (≈ 185 µM) | inactive | – | – | – | – | – | – | –
8 | c1ccc(-c2cs/c(=N\N=C3\C4CCCC3[C@H](c3ccccc3)N[C@@H]4c3ccccc3)[nH]2)cc1 | 25 µg/mL (≈ 53.8 µM) | 200 µg/mL (≈ 430 µM) | 200 µg/mL (≈ 430 µM) | – | 100 µg/mL (≈ 215 µM) | 100 µg/mL (≈ 215 µM) | 200 µg/mL (≈ 430 µM) | 50 µg/mL (≈ 108 µM) | – | 100 µg/mL (≈ 215 µM) | – | – | – | – | inactive | inactive | – | –
9 | Fc1ccc([C@H]2N[C@@H](c3ccc(F)cc3)C3CCCC2/C3=N/N=c2\scc(-c3ccccc3)n2-c2ccccc2)cc1 | 12.5 µg/mL (≈ 21.7 µM) | 6.25 µg/mL (≈ 10.8 µM) | 50 µg/mL (≈ 86.7 µM) | 200 µg/mL (≈ 347 µM) | 100 µg/mL (≈ 173 µM) | – | 12.5 µg/mL (≈ 21.7 µM) | 100 µg/mL (≈ 173 µM) | 100 µg/mL (≈ 173 µM) | 50 µg/mL (≈ 86.7 µM) | – | – | – | – | – | – | inactive | –
10 | Fc1ccc([C@H]2N[C@@H](c3ccc(F)cc3)C3CCCC2/C3=N/N=c2/[nH]c(-c3ccccc3)cs2)cc1 | 200 µg/mL (≈ 400 µM) | 12.5 µg/mL (≈ 25 µM) | 50 µg/mL (≈ 99.9 µM) | 6.25 µg/mL (≈ 12.5 µM) | 12.5 µg/mL (≈ 25 µM) | 100 µg/mL (≈ 200 µM) | 100 µg/mL (≈ 200 µM) | 12.5 µg/mL (≈ 25 µM) | 50 µg/mL (≈ 99.9 µM) | 50 µg/mL (≈ 99.9 µM) | – | – | – | – | – | – | – | –
11 | Fc1cccc([C@H]2N[C@@H](c3cccc(F)c3)C3CCCC2/C3=N/N=c2\scc(-c3ccccc3)n2-c2ccccc2)c1 | 50 µg/mL (≈ 86.7 µM) | 100 µg/mL (≈ 173 µM) | 100 µg/mL (≈ 173 µM) | 200 µg/mL (≈ 347 µM) | 100 µg/mL (≈ 173 µM) | 200 µg/mL (≈ 347 µM) | 12.5 µg/mL (≈ 21.7 µM) | 25 µg/mL (≈ 43.3 µM) | 12.5 µg/mL (≈ 21.7 µM) | 12.5 µg/mL (≈ 21.7 µM) | – | – | – | – | – | – | – | –
12 | Clc1ccccc1[C@H]1N[C@@H](c2ccccc2Cl)C2CCCC1/C2=N/N=c1/[nH]c(-c2ccccc2)cs1 | 100 µg/mL (≈ 187 µM) | 12.5 µg/mL (≈ 23.4 µM) | 100 µg/mL (≈ 187 µM) | 50 µg/mL (≈ 93.7 µM) | 100 µg/mL (≈ 187 µM) | 6.25 µg/mL (≈ 11.7 µM) | 25 µg/mL (≈ 46.9 µM) | 100 µg/mL (≈ 187 µM) | 6.25 µg/mL (≈ 11.7 µM) | 25 µg/mL (≈ 46.9 µM) | – | – | – | – | – | – | – | 1
13 | Cc1ccc([C@H]2N[C@@H](c3ccc(C)cc3)C3CCCC2/C3=N/N=c2/[nH]c(-c3ccccc3)cs2)cc1 | 200 µg/mL (≈ 406 µM) | 50 µg/mL (≈ 101 µM) | 12.5 µg/mL (≈ 25.4 µM) | 200 µg/mL (≈ 406 µM) | 200 µg/mL (≈ 406 µM) | – | 200 µg/mL (≈ 406 µM) | 50 µg/mL (≈ 101 µM) | 12.5 µg/mL (≈ 25.4 µM) | 200 µg/mL (≈ 406 µM) | – | – | – | – | – | – | inactive | –
